According to PubChem BioAssay AID330 (DTP/NCI, 2004):
Several values for one entry are separate records, joined by “and”; a condition that tells them apart may be missing. Identical values can stand only once. Toxic doses and inconclusive results are not listed.

Test system: P388 leukemia ip, CD2F1 mice, survival T/C
Assay: NCI In Vivo Anticancer Drug Screen. Data for tumor model P388 Leukemia (intraperitoneal) in CD2F1 (CDF1) mice
Conditions: endpoint: median survival time, higher = longer survival
Summary of the method: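 Mice carrying the transplanted tumor received test compound or vehicle. Survival was recorded in each group, and the value is the treated-group measurement divided by that of the vehicle-treated control group.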

[1] = dose: 60.0 mg/kg/injection, schedule: Q01DX005 (ip), vehicle: saline with Tween-80
[2] = dose: 120.0 mg/kg/injection, schedule: Q01DX005 (ip), vehicle: saline with Tween-80
[3] = dose: 240.0 mg/kg/injection, schedule: Q01DX005 (ip), vehicle: saline with Tween-80
[4] = dose: 50.0 mg/kg/injection, schedule: Q01DX005 (ip), vehicle: saline with Tween-80
[5] = dose: 100.0 mg/kg/injection, schedule: Q01DX005 (ip), vehicle: saline with Tween-80
[6] = dose: 200.0 mg/kg/injection, schedule: Q01DX005 (ip), vehicle: saline with Tween-80
[7] = dose: 100.0 mg/kg/injection, schedule: Q04DX003 (ip), vehicle: saline
[8] = dose: 200.0 mg/kg/injection, schedule: Q04DX003 (ip), vehicle: saline
[9] = dose: 50.0 mg/kg/injection, schedule: Q01DX005 (ip), vehicle: Klucel (hydroxypropylcellulose) (HPC)
[10] = dose: 100.0 mg/kg/injection, schedule: Q01DX005 (ip), vehicle: Klucel (hydroxypropylcellulose) (HPC)
[11] = dose: 200.0 mg/kg/injection, schedule: Q01DX005 (ip), vehicle: Klucel (hydroxypropylcellulose) (HPC)
[12] = dose: 60.0 mg/kg/injection, schedule: Q01DX005 (ip), vehicle: Klucel (hydroxypropylcellulose) (HPC)
[13] = dose: 120.0 mg/kg/injection, schedule: Q01DX005 (ip), vehicle: Klucel (hydroxypropylcellulose) (HPC)
[14] = dose: 240.0 mg/kg/injection, schedule: Q01DX005 (ip), vehicle: Klucel (hydroxypropylcellulose) (HPC)
[15] = dose: 50.0 mg/kg/injection, schedule: Q01DX009 (ip), vehicle: saline
[16] = dose: 100.0 mg/kg/injection, schedule: Q04DX003 (ip), vehicle: Klucel (hydroxypropylcellulose) (HPC)
[17] = dose: 200.0 mg/kg/injection, schedule: Q04DX003 (ip), vehicle: Klucel (hydroxypropylcellulose) (HPC)
[18] = dose: 400.0 mg/kg/injection, schedule: Q04DX003 (ip), vehicle: Klucel (hydroxypropylcellulose) (HPC)

## COC(=O)c1nnn(-c2ccc(S(N)(=O)=O)cc2)c1C(=O)c1ccc(OC)cc1
[1]
  T/C: 100 % of control
[2]
  T/C: 99 % of control
[3]
  T/C: 94 % of control

## CCCCCCCCCCS(=O)CC(CO)NC(=O)/C=C/c1c(C)[nH]c(=O)[nH]c1=O (stereo not given)
dose: 0.78 mg/kg/injection, schedule: Q01DX009 (ip), vehicle: other
  T/C: 107 % of control and 116 % of control
dose: 1.56 mg/kg/injection, schedule: Q01DX009 (ip), vehicle: other
  T/C: 115 % of control
dose: 6.25 mg/kg/injection, schedule: Q01DX009 (ip), vehicle: other
  T/C: 153 % of control

## Cc1c(=O)n(C)c2ccccc2[n+]1[O-]
[1]
  T/C: 96 % of control
[2]
  T/C: 93 % of control
[3]
  T/C: 100 % of control

## O=C(/C(=C\c1ccccc1[N+](=O)[O-])S(=O)(=O)c1ccccc1)c1ccc([N+](=O)[O-])cc1
[4]
  T/C: 98 % of control
[5]
  T/C: 103 % of control
[6]
  T/C: 95 % of control

## [Co+3].[NH-]CC[NH-].[NH-]CC[NH-].[NH-]CC[SH2+].[O-][Cl+3]([O-])([O-])O
[7]
  T/C: 100 % of control
[8]
  T/C: 100 % of control
dose: 400.0 mg/kg/injection, schedule: Q04DX003 (ip), vehicle: saline
  T/C: 102 % of control
dose: 800.0 mg/kg/injection, schedule: Q04DX003 (ip), vehicle: saline
  T/C: 99 % of control

## CC1=C(C#N)C(=O)OC1(C)C1CCCC(=O)C1 (stereo not given)
dose: 7.5 mg/kg/injection, schedule: Q01DX005 (ip), vehicle: saline with Tween-80
  T/C: 99 % of control
dose: 15.0 mg/kg/injection, schedule: Q01DX005 (ip), vehicle: saline with Tween-80
  T/C: 100 % of control
dose: 30.0 mg/kg/injection, schedule: Q01DX005 (ip), vehicle: saline with Tween-80
  T/C: 98 % of control
[1]
  T/C: 100 % of control and 107 % of control

## CCCC1C/C=C/C=C/C=C/C=C/C(OC2OC(C)C(O)C(N)C2O)CC(O)C(C(=O)O)C(O)CC(=O)CC(O)CCCC(=O)CC(O)C(CC)C(=O)O1 (stereo not given)
dose: 2.5 mg/kg/injection, schedule: Q01DX009 (ip), vehicle: Klucel (hydroxypropylcellulose) (HPC)
  T/C: 94 % of control
dose: 5.0 mg/kg/injection, schedule: Q01DX009 (ip), vehicle: Klucel (hydroxypropylcellulose) (HPC)
  T/C: 106 % of control
dose: 10.0 mg/kg/injection, schedule: Q01DX009 (ip), vehicle: Klucel (hydroxypropylcellulose) (HPC)
  T/C: 92 % of control
dose: 20.0 mg/kg/injection, schedule: Q01DX009 (ip), vehicle: Klucel (hydroxypropylcellulose) (HPC)
  T/C: 87 % of control

## CCN(CC)CCNc1ccc([N+](=O)[O-])c2sc3cc(Cl)ccc3c(=O)c12
[4]
  T/C: 100 % of control
[5]
  T/C: 104 % of control
[6]
  T/C: 102 % of control

## CC(Oc1cc(Cl)c(Cl)cc1Cl)C(=O)NC(Cc1ccccc1)C(=O)O (stereo not given)
[4]
  T/C: 105 % of control
[5]
  T/C: 109 % of control
[6]
  T/C: 95 % of control

## COC(=O)[C@@H]1O[C@H]2OC=C[C@H]21
dose: 12.5 mg/kg/injection, schedule: Q01DX005 (ip), vehicle: saline
  T/C: 112 % of control
dose: 25.0 mg/kg/injection, schedule: Q01DX005 (ip), vehicle: saline
  T/C: 108 % of control
dose: 50.0 mg/kg/injection, schedule: Q01DX005 (ip), vehicle: saline
  T/C: 99 % of control and 100 % of control

## Cc1ccc(C2c3c(c4ccccc4n3C(=O)c3ccccc3)C(=O)NN2C(=O)c2ccccc2)cc1 (stereo not given)
[9]
  T/C: 97 % of control
[10]
  T/C: 90 % of control
[11]
  T/C: 95 % of control

## COc1ccc(-c2cscc2N)cc1
[12]
  T/C: 114 % of control
[13]
  T/C: 118 % of control
[14]
  T/C: 97 % of control

## [C-]#[N+]C1CCCCC1.[C-]#[N+]C1CCCCC1.[Ni].[S-]c1ccccc1.[S-]c1ccccc1
dose: 25.0 mg/kg/injection, schedule: Q04DX003 (ip), vehicle: saline with Tween-80
  T/C: 89 % of control
dose: 50.0 mg/kg/injection, schedule: Q04DX003 (ip), vehicle: saline with Tween-80
  T/C: 91 % of control
dose: 100.0 mg/kg/injection, schedule: Q04DX003 (ip), vehicle: saline with Tween-80
  T/C: 89 % of control and 93 % of control

## Nc1nnc2nc(CC(=O)c3ccc4ccccc4c3)c(=O)[nH]n12
dose: 60.0 mg/kg/injection, schedule: Q01DX005 (ip), vehicle: saline
  T/C: 95 % of control
dose: 120.0 mg/kg/injection, schedule: Q01DX005 (ip), vehicle: saline
  T/C: 100 % of control
dose: 240.0 mg/kg/injection, schedule: Q01DX005 (ip), vehicle: saline
  T/C: 103 % of control

## CCOc1ccc(C(C)c2cc3c(cc2OC)OCO3)c(C)c1 (stereo not given)
[9]
  T/C: 103 % of control
[10]
  T/C: 106 % of control
[11]
  T/C: 106 % of control

## CC(=O)N(C)OS(C)(=O)=O
dose: 50.0 mg/kg/injection, schedule: Q01DX001 (ip), vehicle: saline with Tween-80
  T/C: 108 % of control
[4]
  T/C: 101 % of control
dose: 100.0 mg/kg/injection, schedule: Q01DX001 (ip), vehicle: saline with Tween-80
  T/C: 100 % of control
[5]
  T/C: 103 % of control
dose: 200.0 mg/kg/injection, schedule: Q01DX001 (ip), vehicle: saline with Tween-80
  T/C: 104 % of control
[6]
  T/C: 106 % of control
dose: 400.0 mg/kg/injection, schedule: Q01DX001 (ip), vehicle: saline with Tween-80
  T/C: 104 % of control

## Cc1cc(N)ncc1[N+](=O)[O-]
[4]
  T/C: 99 % of control
[5]
  T/C: 101 % of control
[6]
  T/C: 98 % of control

## CC(=O)Nc1ccc(Cl)cc1C(Cl)c1ccccc1 (stereo not given)
dose: 12.5 mg/kg/injection, schedule: Q01DX005 (ip), vehicle: Klucel (hydroxypropylcellulose) (HPC)
  T/C: 109 % of control
dose: 25.0 mg/kg/injection, schedule: Q01DX005 (ip), vehicle: Klucel (hydroxypropylcellulose) (HPC)
  T/C: 118 % of control
[9]
  T/C: 123 % of control and 124 % of control
[10]
  T/C: 115 % of control

## COC1OC2COC(c3ccccc3)OC2C(OC(C)=O)C1OC(C)=O (stereo not given)
dose: 12.5 mg/kg/injection, schedule: Q01DX009 (ip), vehicle: other
  T/C: 98 % of control
dose: 25.0 mg/kg/injection, schedule: Q01DX009 (ip), vehicle: other
  T/C: 99 % of control
dose: 50.0 mg/kg/injection, schedule: Q01DX009 (ip), vehicle: other
  T/C: 100 % of control
dose: 100.0 mg/kg/injection, schedule: Q01DX009 (ip), vehicle: other
  T/C: 95 % of control
dose: 200.0 mg/kg/injection, schedule: Q01DX009 (ip), vehicle: other
  T/C: 100 % of control

## Cn1c(=O)c2nc(-c3ccc(Cl)cc3)oc2n(C)c1=O
[15]
  T/C: 104 % of control
dose: 100.0 mg/kg/injection, schedule: Q01DX009 (ip), vehicle: saline
  T/C: 100 % of control
dose: 200.0 mg/kg/injection, schedule: Q01DX009 (ip), vehicle: saline
  T/C: 102 % of control

## CCC(O)(C(=O)O)c1ccccc1 (stereo not given)
dose: 25.0 mg/kg/injection, schedule: Q04DX003 (ip), vehicle: saline
  T/C: 105 % of control
dose: 50.0 mg/kg/injection, schedule: Q04DX003 (ip), vehicle: saline
  T/C: 97 % of control
[7]
  T/C: 94 % of control
[8]
  T/C: 100 % of control

## CC1COCCOC(=O)COCC(=O)OCCOCC(C)O1 (stereo not given)
[16]
  T/C: 107 % of control
[17]
  T/C: 103 % of control
[18]
  T/C: 93 % of control

## N=C(N)SCCCC(=O)O
dose: 12.5 mg/kg/injection, schedule: Q01DX009 (ip), vehicle: saline
  T/C: 102 % of control
dose: 25.0 mg/kg/injection, schedule: Q01DX009 (ip), vehicle: saline
  T/C: 120 % of control
[15]
  T/C: 95 % of control

## COc1ccc2[nH]c(C(=O)N(C)C)cc2c1
[4]
  T/C: 100 % of control
[5]
  T/C: 104 % of control
[6]
  T/C: 101 % of control

## CC(=O)Nc1ccc2c3c(cccc13)CC2
dose: 50.0 mg/kg/injection, schedule: Q01DX009 (ip), vehicle: Klucel (hydroxypropylcellulose) (HPC)
  T/C: 101 % of control
dose: 100.0 mg/kg/injection, schedule: Q01DX009 (ip), vehicle: Klucel (hydroxypropylcellulose) (HPC)
  T/C: 106 % of control
dose: 200.0 mg/kg/injection, schedule: Q01DX009 (ip), vehicle: Klucel (hydroxypropylcellulose) (HPC)
  T/C: 108 % of control

## O=C1CSC(c2ccccc2Cl)N1N1C(=O)CSC1c1ccccc1Cl (stereo not given)
[12]
  T/C: 100 % of control
[13]
  T/C: 93 % of control
[14]
  T/C: 98 % of control

## C[C@@H]1CC(c2ccc(Cl)cc2)[C@@H](c2ccccc2)C(=O)O1 (stereo not given in full)
[16]
  T/C: 100 % of control
[17]
  T/C: 99 % of control
[18]
  T/C: 97 % of control

## CCCCCCCCCCCCCCCCCCOC(=O)CCN
[4]
  T/C: 101 % of control
[5]
  T/C: 109 % of control
[6]
  T/C: 113 % of control
